Data on one molecule can be found in publication doi:10.1101/2023.12.19.571805v1 (biorxiv, 2023).

This assay has as its target T1, PhoR (PhoR-GFP) (Mycobacterium tuberculosis, UniProt P71815).
T1 sequence (P71815 181-485 limits assumed): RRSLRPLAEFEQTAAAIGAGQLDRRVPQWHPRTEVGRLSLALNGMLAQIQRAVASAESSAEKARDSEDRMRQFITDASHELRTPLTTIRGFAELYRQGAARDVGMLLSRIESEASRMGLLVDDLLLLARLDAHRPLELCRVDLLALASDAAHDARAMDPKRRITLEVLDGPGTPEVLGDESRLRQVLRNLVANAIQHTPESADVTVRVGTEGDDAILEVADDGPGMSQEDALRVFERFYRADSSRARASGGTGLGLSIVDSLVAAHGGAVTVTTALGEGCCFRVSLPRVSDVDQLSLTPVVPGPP
The assay is described as follows: radioactive dot-blot autophosphorylation assay. The format is biochemical. The note with it: read-out: % inhibition at 10 μM.

SMILES strings stand for the structures. *1 amine or outer side, *2 acyl side, *3 side chain or, on linkers, in order; H or OH if unused. Where a SMILES comes first, the peptide text is derived from it. Bridges are numbered along the chain shown (N, C = ends). Roman numbers before positions name the chains, in order. [ ]: non-standard residue; d: D form. Actinocin(9to1) = Cc1c2oc3c(C)ccc(C(=O)[*:1])c3nc-2c(C(=O)[*:2])c(N)c1=O; NMeV = CN[C@H](C(=O)O)C(C)C; Sar = CNCC(=O)O

Broadly, the inhibition is the share of the control response that was lost under treatment. `Cc1c2oc3c(C)ccc(C(=O)N[C@@H]4C(=O)N[C@H](C(C)C)C(=O)N5CCC[C@H]5C(=O)N(C)CC(=O)N(C)[C@@H](C(C)C)C(=O)O[C@@H]4C)c3nc-2c(C(=O)N[C@@H]2C(=O)N[C@H](C(C)C)C(=O)N3CCC[C@H]3C(=O)N(C)CC(=O)N(C)[C@@H](C(C)C)C(=O)O[C@@H]2C)c(N)c1=O` [Actinomycin D] (I: T[dV]P[Sar][NMeV] / II: T[dV]P[Sar][NMeV]; ester I:1-I:C, II:1-II:C; linker I:N-II:N via Actinocin(9to1)): the inhibition at 10 µM was more than 50%.
